According to ChEMBL document CHEMBL1240356, “Efficacy profiles of daptomycin for treatment of invasive and noninvasive pulmonary infections with Streptococcus pneumoniae” (2010):
Calls of active or inactive are those of the source. The calls are words filed in the database; no cut-off is given here.

Key:
Streptococcus pneumoniae [1] = assay: Antibacterial activity against 1.5 x 10^7 CFU Streptococcus pneumoniae serotype 2 infected in therapeutic C57BL/6 mouse model assessed as increase in serum compound level at 6 mg/kg, ip measured on day 3 post infection; assay type: functional, organism-based; set-up: dose 6 mg/kg
Streptococcus pneumoniae [2] = assay: Antibacterial activity against 1.5 x 10^7 CFU Streptococcus pneumoniae serotype 19 infected in therapeutic C57BL/6 mouse model assessed as effect on lung permeability at 6 mg/kg, ip measured on day 3 post infection; assay type: functional, organism-based; set-up: dose 6 mg/kg

CCCCCCCCCC(=O)N[C@@H](Cc1c[nH]c2ccccc12)C(=O)N[C@H](CC(N)=O)C(=O)N[C@@H](CC(=O)O)C(=O)N[C@@H]1C(=O)NCC(=O)N[C@@H](CCCN)C(=O)N[C@@H](CC(=O)O)C(=O)N[C@H](C)C(=O)N[C@@H](CC(=O)O)C(=O)NCC(=O)N[C@H](CO)C(=O)N[C@@H]([C@H](C)CC(=O)O)C(=O)N[C@@H](CC(=O)c2ccccc2N)C(=O)O[C@@H]1C
Activity (Streptococcus pneumoniae [1]): Active
Activity (Streptococcus pneumoniae [2]): Active
